In brackets after ≈: the same amount, converted by molar mass. A value given as a limit tells only on which side of the number the result lay.

Common to all, as to format: functional, cell-based
Experiment [1] can be described thus: Cytotoxicity against human H116 cells.
Experiment [2] has as its system HT-29. Description: Cytotoxicity against human HT-29 cells.
Experiment [3] relates to A549. As to the kind of experiment: Cytotoxicity against human A549 cells.

Turning to `COC(=O)CC[C@@H]1C(=C(C)C)CC[C@H]2[C@@]1(C)CC[C@H](C)[C@]2(C)Cc1cc(O)cc(C)c1O`, the IC50 in experiment [1] is 2.5 µg/mL (≈ 5.65 µM); in experiment [2], below 2.5 µg/mL; in experiment [3], 2.5 µg/mL (≈ 5.65 µM).

For orientation: IC50 means the concentration that gives 50% inhibition. Low readings indicate higher potency, high ones lower potency.

Values taken from ChEMBL document CHEMBL1150146, “New terpenoids from the brown alga Stypopodium zonale” (J Nat Prod, 2002).
